Here are results for 37 compounds from patent publication US8575360B2, “Derivatives of 6,7-dihydro-5H-imidazo[1,2-a]imidazole-3-carboxylic acid amides” (Boehringer Ingelheim International GmbH, priority 2009, dated 2013).

In this test the target is T1, LFA-1 (CD18/CD11a) binding to ICAM-1 (Homo sapiens, UniProt P05107+P20701).
T1 construct: followed by purified LFA-1 (in buffer of 50 mM triethylamine, 150 mM NaCl, 1% beta octylglucoside)
Briefly: LFA-1/Biotin-sICAM-1 AlphaScreen assay: inhibition of LFA-1 binding to ICAM-1. Conditions: 37° C. 90 minutes, highest compound concentration 1 μM. From the text:
Assay to Determine Inhibition of LFA-1 Binding to ICAM-1
This assay protocol is designed to study the direct antagonism, by a test compound, of the interaction of ICAM-1 with the Leukointegrin CD18/CD11a (LFA-1).
The LFA-1/Biotin-sICAM-1 molecular assay measures the ability of test compounds to inhibit binding of LFA-1 to Biotinylated-sICAM using AlphaScreen technology (Ref: Wilson, J, Rossi, C P, Carboni, S, Fremaux, C, Perrin, D, Soto, C, Kosco-Vilbois, M, and Scheer, A: A Homogeneous 384-Well High-Throughput Binding Assay for a TNF Receptor Using Alphascreen Technology. J Biomol Screen 2003; 8:522-532) that uses TS2/4(anti-LFA-1)-custom conjugated AlphaLisa acceptor beads and streptavidin-coated donor beads from PerkinElmer. The assay was performed in white OptiPlates-384 in a volume of 60 μL using assay buffer (Dulbecco's PBS containing calcium and magnesium, 2 mM MgCl2, 0.1 mM PMSF, 0.1% BSA, pH 7.1). To each well, Biotin-sICAM was added followed by purified LFA-1 (in buffer of 50 mM triethylamine, 150 mM NaCl, 1% beta octylglucoside, 2 mM MgCl2 neutralized to pH with 1M Tris-HCl, pH 7.5). For compound testing, compound was added in 5 uL to the above in 25 uL. LFA-1 and Biotin-sICAM-1 were used at concentrations that would yield a signal to background ratio of 8-10. The highest concentration of compound was 1 μM in 1% DMSO. Positive controls were wells without compound containing LFA-1, while blanks were wells without both compound and LFA-1. Plates were mixed and incubated at 37° C. for 90 minutes. This was followed by addition of 15 μL/well TS2/4-conjugated acceptor beads diluted in PBS containing 0.1% BSA for a final concentration of 10 μg/mL. The plates were mixed and incubated in the dark for 30 minutes at room temperature followed by addition of 15 μL/well streptavidin-coated donor beads diluted in PBS containing 0.1% BSA at a final concentration of 15 μg/mL. The plates were mixed and incubated in the dark for 60 minutes at room temperature and then read on an EnVision Multilabel Reader using AlphaScreen 384-well OptiPlate protocol.

T1 sequence (P20701 26-1170): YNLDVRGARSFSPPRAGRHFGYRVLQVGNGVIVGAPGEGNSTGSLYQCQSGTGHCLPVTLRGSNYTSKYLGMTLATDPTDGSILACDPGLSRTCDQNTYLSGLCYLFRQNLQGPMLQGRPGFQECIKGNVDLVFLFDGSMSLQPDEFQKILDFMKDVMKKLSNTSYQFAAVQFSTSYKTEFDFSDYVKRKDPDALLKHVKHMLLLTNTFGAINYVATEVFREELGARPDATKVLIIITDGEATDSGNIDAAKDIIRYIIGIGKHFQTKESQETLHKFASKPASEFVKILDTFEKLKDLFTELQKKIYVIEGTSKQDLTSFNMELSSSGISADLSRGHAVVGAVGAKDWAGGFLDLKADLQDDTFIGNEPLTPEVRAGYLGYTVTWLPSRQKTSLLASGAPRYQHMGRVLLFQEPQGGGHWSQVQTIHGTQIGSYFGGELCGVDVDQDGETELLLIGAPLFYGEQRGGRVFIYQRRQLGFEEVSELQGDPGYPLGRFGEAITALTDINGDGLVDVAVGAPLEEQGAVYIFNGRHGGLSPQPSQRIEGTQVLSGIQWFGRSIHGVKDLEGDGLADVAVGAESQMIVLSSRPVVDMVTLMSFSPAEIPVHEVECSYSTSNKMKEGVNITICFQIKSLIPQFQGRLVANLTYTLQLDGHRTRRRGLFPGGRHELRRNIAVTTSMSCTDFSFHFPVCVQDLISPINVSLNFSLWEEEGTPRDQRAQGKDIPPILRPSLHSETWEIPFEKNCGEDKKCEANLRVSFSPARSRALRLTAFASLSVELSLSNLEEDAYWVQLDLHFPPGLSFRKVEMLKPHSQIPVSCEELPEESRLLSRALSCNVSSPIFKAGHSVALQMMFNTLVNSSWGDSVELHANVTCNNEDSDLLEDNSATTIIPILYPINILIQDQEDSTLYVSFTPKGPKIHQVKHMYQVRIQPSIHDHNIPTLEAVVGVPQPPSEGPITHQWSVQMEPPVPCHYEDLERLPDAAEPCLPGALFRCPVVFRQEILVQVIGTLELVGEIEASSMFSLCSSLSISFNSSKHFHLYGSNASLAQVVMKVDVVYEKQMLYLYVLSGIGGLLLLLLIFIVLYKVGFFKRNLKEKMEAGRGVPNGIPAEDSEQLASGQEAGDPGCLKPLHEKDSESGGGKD
T1 sequence (P05107 23-769 partner): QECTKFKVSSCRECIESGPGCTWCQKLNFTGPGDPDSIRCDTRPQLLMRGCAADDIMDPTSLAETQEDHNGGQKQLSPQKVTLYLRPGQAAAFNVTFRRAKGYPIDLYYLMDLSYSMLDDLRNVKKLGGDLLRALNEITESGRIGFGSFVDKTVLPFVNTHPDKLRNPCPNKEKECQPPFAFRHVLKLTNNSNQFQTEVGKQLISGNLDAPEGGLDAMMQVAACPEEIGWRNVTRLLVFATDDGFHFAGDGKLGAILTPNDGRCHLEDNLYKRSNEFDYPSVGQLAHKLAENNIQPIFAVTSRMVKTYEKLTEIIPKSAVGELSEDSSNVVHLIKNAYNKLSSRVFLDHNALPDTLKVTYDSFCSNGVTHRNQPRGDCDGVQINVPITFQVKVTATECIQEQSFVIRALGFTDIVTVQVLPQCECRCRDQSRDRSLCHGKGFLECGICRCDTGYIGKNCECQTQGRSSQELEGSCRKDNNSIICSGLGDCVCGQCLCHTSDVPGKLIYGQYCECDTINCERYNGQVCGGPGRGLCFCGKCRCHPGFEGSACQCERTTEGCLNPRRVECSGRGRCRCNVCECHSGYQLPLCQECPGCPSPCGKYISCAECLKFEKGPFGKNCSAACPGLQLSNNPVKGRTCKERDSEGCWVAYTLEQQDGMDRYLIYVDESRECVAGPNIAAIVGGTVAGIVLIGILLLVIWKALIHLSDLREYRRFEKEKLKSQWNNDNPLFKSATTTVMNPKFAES

Regarding `CN(C)C(=O)c1cccc(-c2ccc(C3(NC(=O)C4(NC(=O)c5cnc6n5[C@](C)(Cc5ccc(C#N)cc5)C(=O)N6c5cc(Cl)cc(Cl)c5)CC4)CC3)nc2)c1` [Compound 56], the half-inhibitory concentration (IC50) – broadly, the concentration that inhibits the measured activity by half – came out at 0.67 nM.
`C[C@@]1(Cc2ccc(C#N)cc2)C(=O)N(c2cc(Cl)cc(Cl)c2)c2ncc(C(=O)NC3(C(=O)NC4(c5ccc(-c6ccc(O)cc6)cn5)CC4)CC3)n21` [Compound 135] registered an IC50 of 0.64 nM.
The figure for `Cc1cc(-c2ccc(C3(NC(=O)C4(NC(=O)c5cnc6n5[C@](C)(Cc5ccc(C#N)cc5)C(=O)N6c5cc(Cl)cc(Cl)c5)CC4)CC3)nc2)ccn1` [Compound 54] is 0.53 nM; for `C[C@@]1(Cc2ccc(C#N)cc2)C(=O)N(c2cc(Cl)cc(Cl)c2)c2ncc(C(=O)NC3(C(=O)NC4(c5ccc(-c6cccc(C(N)=O)c6)cn5)CC4)CC3)n21` [Compound 66] it is 1.3 nM; for `C[C@@]1(Cc2ccc(C#N)cc2)C(=O)N(c2cc(Cl)c(F)c(Cl)c2)c2ncc(C(=O)NC3(C(=O)NC4(c5ccc(-c6ccc7nccn7c6)cn5)CC4)CC3)n21` [Compound 16] it is 1 nM.
The figure for `C[C@@]1(Cc2ccc(C#N)cc2)C(=O)N(c2cc(Cl)c(F)c(Cl)c2)c2ncc(C(=O)NC3(C(=O)NC4(c5ncc(-c6ccc(CO)cc6)cn5)CC4)CC3)n21` [Compound 32] is 1.4 nM; for `C[C@@]1(Cc2ccc(C#N)cc2)C(=O)N(c2cc(Cl)c(F)c(Cl)c2)c2ncc(C(=O)NC3(C(=O)NC4(c5ncc(-c6ccc(O)cc6)cn5)CC4)CC3)n21` [Compound 34] it is 1 nM; for `C[C@@]1(Cc2ccc(C#N)cc2)C(=O)N(c2cc(Cl)cc(Cl)c2)c2ncc(C(=O)NC3(C(=O)NC4(c5ccc(-c6ccc(S(N)(=O)=O)cc6)cn5)CC4)CC3)n21` [Compound 132] it is 0.72 nM.
The figure for `C[C@@H](NC(=O)C1(NC(=O)c2cnc3n2[C@](C)(Cc2ccc(C#N)cc2)C(=O)N3c2cc(Cl)c(F)c(Cl)c2)CC1)c1ccc(-c2ccc(CO)nc2)nc1` [Compound 160] is 0.59 nM; for `C[C@@]1(Cc2ccc(OC(F)(F)F)cc2)C(=O)N(c2cc(Cl)c(F)c(Cl)c2)c2ncc(C(=O)NC3(C(=O)NC4(c5ccc(-c6ccc(=O)[nH]c6)cn5)CC4)CC3)n21` [Compound 108] it is 1.1 nM; for `C[C@@]1(Cc2ccc(OC(F)(F)F)cc2)C(=O)N(c2cc(Cl)c(F)c(Cl)c2)c2ncc(C(=O)NC3(C(=O)NC4(c5ccc(-c6cn[nH]c6)nn5)CC4)CC3)n21` [Compound 42] it is 1.3 nM.
`C[C@@]1(Cc2ccc(C#N)cc2)C(=O)N(c2cc(Cl)c(F)c(Cl)c2)c2ncc(C(=O)NC3(C(=O)NC4(c5ccc(-c6ccc(S(C)(=O)=O)cc6)cn5)CC4)CC3)n21` [Compound 158] showed an IC50 of 1.3 nM.
The figure for `C[C@@H](NC(=O)C1(NC(=O)c2cnc3n2[C@](C)(Cc2ccc(OC(F)(F)F)cc2)C(=O)N3c2cc(Cl)c(F)c(Cl)c2)CC1)c1ccc(-c2ccc(CO)nc2)cn1` [Compound 116] is 1.3 nM; for `C[C@@]1(Cc2ccc(C#N)cc2)C(=O)N(c2cc(Cl)cc(Cl)c2)c2ncc(C(=O)NC3(C(=O)NC4(c5ccc(-c6cccc(S(C)(=O)=O)c6)cn5)CC4)CC3)n21` [Compound 141] it is 0.53 nM; for `C[C@@]1(Cc2ccc(OC(F)(F)F)cc2)C(=O)N(c2cc(Cl)c(F)c(Cl)c2)c2ncc(C(=O)NC3(C(=O)NC4(c5ncc(-c6ccc(CO)nc6)cn5)CC4)CC3)n21` [Compound 110] it is 0.65 nM.
The figure for `Cc1nn(C)cc1-c1ccc(C2(NC(=O)C3(NC(=O)c4cnc5n4[C@](C)(Cc4ccc(OC(F)(F)F)cc4)C(=O)N5c4cc(Cl)c(F)c(Cl)c4)CC3)CC2)cn1` [Compound 150] is 0.68 nM; for `C[C@@]1(Cc2ccc(C#N)cc2)C(=O)N(c2cc(Cl)c(F)c(Cl)c2)c2ncc(C(=O)NC3(C(=O)NC4(c5ccc6cc(-c7cn[nH]c7)cnc6n5)CCC4)CC3)n21` [Compound 10] it is 1 nM; for `C[C@H](NC(=O)c1cnc2n1[C@](C)(Cc1ccc(C#N)cc1)C(=O)N2c1cc(Cl)c(F)c(Cl)c1)C(=O)NC1(c2ncc(-c3ccc(CO)nc3)cn2)CC1` [Compound 78] it is 1.2 nM.
The figure for `CC1(Cc2ccc(C#N)cc2)C(=O)N(c2cc(Cl)c(F)c(Cl)c2)c2ncc(C(=O)NC3(C(=O)NC4(c5ccc(-c6cnn(C7CC7)c6)cn5)CC4)CC3)n21` (stereo not shown) [Compound 38] is 1.7 nM.
`C[C@H](NC(=O)c1cnc2n1[C@](C)(Cc1ccc(C#N)cc1)C(=O)N2c1cc(Cl)c(F)c(Cl)c1)C(=O)NC1(c2ccc(-c3cnn(C)c3)cn2)CC1` [Compound 88] had an IC50 of 0.89 nM.
To `Cn1cc(-c2cnc(C3(NC(=O)C4(NC(=O)c5cnc6n5[C@](C)(Cc5ccc(OC(F)(F)F)cc5)C(=O)N6c5cc(Cl)c(F)c(Cl)c5)CC4)CC3)nc2)cn1` [Compound 40, (R)-7-(3,5-Dichloro-4-fluoro-phenyl)-5-methyl-6-oxo-5-(4-trifluoromethoxy-benzyl)-6,7-dihydro-5H-imidazo[1,2-a]imidazole-3-carboxylic acid(1-{1-[5-(1-methyl-1H-pyrazol-4-yl)-pyrimidin-2-yl]-cyclopropylcarbamoyl}-cyclopropyl)-amide] belongs 1.7 nM; to `C[C@@]1(Cc2ccc(C#N)cc2)C(=O)N(c2cc(Cl)c(F)c(Cl)c2)c2ncc(C(=O)NC3(C(=O)NC4(c5ccc(-c6ccncc6)cn5)CC4)CC3)n21` [Compound 68], 0.6 nM; to `C[C@@H](NC(=O)C1(NC(=O)c2cnc3n2[C@](C)(Cc2ccc(C#N)cc2)C(=O)N3c2cc(Cl)c(F)c(Cl)c2)CC1)c1ccc(-c2ccc(CO)nc2)cn1` [Compound 65], 0.53 nM.
As for `Cc1n[nH]c(C)c1-c1ccc(C2(NC(=O)C3(NC(=O)c4cnc5n4[C@](C)(Cc4ccc(C#N)cc4)C(=O)N5c4cc(Cl)c(F)c(Cl)c4)CC3)CC2)nc1` [Compound 157], the IC50 is 0.91 nM.
To `C[C@@]1(Cc2ccc(C#N)cc2)C(=O)N(c2cc(Cl)cc(Cl)c2)c2ncc(C(=O)NC3(C(=O)NC4(c5ccc(-c6cnc7[nH]ccc7c6)cn5)CC4)CC3)n21` [Compound 146] belongs 1.6 nM; to `C[C@@]1(Cc2ccc(C#N)cc2)C(=O)N(c2cc(Cl)cc(Cl)c2)c2ncc(C(=O)NC3(C(=O)NC4(c5ccc(-c6ccc(Cl)nc6)cn5)CC4)CC3)n21` [Compound 61], 1 nM; to `Cc1ccc(-c2cnc(C3(NC(=O)C4(NC(=O)c5cnc6n5[C@](C)(Cc5ccc(C#N)cc5)C(=O)N6c5cc(Cl)c(F)c(Cl)c5)CC4)CC3)nc2)cn1` [Compound 112], 0.54 nM.
The figure for `C[C@@]1(Cc2ccc(C#N)cc2)C(=O)N(c2cc(Cl)cc(Cl)c2)c2ncc(C(=O)NC3(C(=O)NC4(c5ccc(-c6ccc(F)nc6)cn5)CC4)CC3)n21` [Compound 58] is 0.71 nM.
To `Cc1nn(C)cc1-c1ccc(C2(NC(=O)[C@H](CO)NC(=O)c3cnc4n3[C@](C)(Cc3ccc(C#N)cc3)C(=O)N4c3cc(Cl)c(F)c(Cl)c3)CC2)nc1` [Compound 154] belongs 0.76 nM.
As to `C[C@@]1(Cc2ccc(C#N)cc2)C(=O)N(c2cc(Cl)cc(Cl)c2)c2ncc(C(=O)NC3(C(=O)NC4(c5ccc(-c6cn[nH]c6)cn5)CC4)CC3)n21` [Compound 129], the concentration for half-maximal inhibition (IC50) is 0.22 nM.
Consider `Cc1nn(C)c(C)c1-c1ccc(C2(NC(=O)C3(NC(=O)c4cnc5n4[C@](C)(Cc4ccc(C#N)cc4)C(=O)N5c4cc(Cl)c(F)c(Cl)c4)CC3)CC2)nc1` [Compound 101], for which the IC50 was 1.1 nM.
`Cn1cc(-c2ccc(C3(NC(=O)C4(NC(=O)c5cnc6n5[C@](C)(Cc5ccc(Br)cc5)C(=O)N6c5cc(Cl)cc(Cl)c5)CC4)CC3)nc2)cn1` [Compound 75] displayed an IC50 of 1.2 nM.
To `Cc1n[nH]c(C)c1-c1ccc(C2(NC(=O)C3(NC(=O)c4cnc5n4[C@](C)(Cc4ccc(C#N)cc4)C(=O)N5c4cc(Cl)cc(Cl)c4)CC3)CC2)nc1` [Compound 60] belongs 0.96 nM; to `C[C@@]1(Cc2ccc(C#N)cc2)C(=O)N(c2cc(Cl)c(F)c(Cl)c2)c2ncc(C(=O)NC3(C(=O)NC4(c5ccc(-c6ccc(O)cc6)cn5)CC4)CC3)n21` [Compound 2], 1.1 nM.
The figure for `C[C@@]1(Cc2ccc(C#N)cc2)C(=O)N(c2cc(Cl)c(F)c(Cl)c2)c2ncc(C(=O)NC3(C(=O)NC4(c5ccc(-c6ccc(CO)cc6)cn5)CC4)CC3)n21` [Compound 100] is 1.3 nM; for `C[C@@]1(Cc2ccc(C#N)cc2)C(=O)N(c2cc(Cl)cc(Cl)c2)c2ncc(C(=O)NC3(C(=O)NC4(c5ccc(-c6cccc(S(N)(=O)=O)c6)cn5)CC4)CC3)n21` [Compound 138] it is 0.64 nM; for `C[C@@]1(Cc2ccc(C#N)cc2)C(=O)N(c2cc(Cl)cc(Cl)c2)c2ncc(C(=O)NC3(C(=O)NC4(c5ccc(-c6cccc(CO)c6)cn5)CC4)CC3)n21` [Compound 143] it is 1.9 nM.
